Data on 2 compounds can be found in US20130136766A1, “EFFECTIVE FRACTION FROM THE FRUITING BODIES OF GANODERMA LUCIDUM, EXTRACTION METHOD, USE AND PREPARATION THEREOF” (Shanghai University of Traditional Chinese Medicine, priority 2010, published 2013).

The subject of the test is STZ-induced type 2 diabetic model rats. The experiment in a line: Drug potency on STZ-induced type 2 diabetic model rats (fasting blood glucose). It is filed as in vivo. On the procedure:
The extract from Example 13 was trialed for its drug potency on STZ-induced type 2 diabetic model rats in Center for Drug Safety Evaluation, Shanghai University of Traditional Chinese Medicine.
FYGL was orally administered for various groups as: type 2 diabetes control group with saline 20 mL/kg; type 2 diabetes group with low dose of FYGL 50 mg/kg; type 2 diabetes group with high dose of FYGL 150 mg/kg; metformin group with metformin 200 mg/kg; rosiglitazone group with rosiglitazone 3 mg/kg. Numbers of rats in each group are 10.
The symbol # indicates significant difference of the fasting blood glucose level with p<0.05 and ## indicates very significant difference with p<0.01, referred to that of type 2 diabetes control group.

For `CN(C)C(=N)N=C(N)N` [Metformin, metformin], the fasting blood glucose (10 days, metformin 200 mg/kg) is 14 ± 4(#) mM; the fasting blood glucose (20 days, metformin 200 mg/kg) is 18 ± 5(#) mM; the fasting blood glucose (30 days, metformin 200 mg/kg) is reported as 13 ± 2 (##) mM.
For the compound `CN(CCOc1ccc(CC2SC(=O)NC2=O)cc1)c1ccccn1` (stereo not drawn) [rosiglitazone], the fasting blood glucose is 14 ± 5(#) mM (10 days, rosiglitazone 3 mg/kg); 14 ± 4(#) mM (20 days, rosiglitazone 3 mg/kg); 12 ± 3 (##) mM (30 days, rosiglitazone 3 mg/kg).
